Data as given in USRE39088E1, “Amide compounds and use of the same” (Japan Tobacco, Inc., priority 1995, dated 2006).
Where a name gives a salt, the structure may show the parent alone.

Legend:
[1] = system: IL-8; test: Suppression of production of inflammatory cytokines: IL-8 in LPS-stimulated human peripheral blood monocytes (ELISA); type: cell-based; conditions: supernatant 20 hours after LPS
Procedure: Suppression of production of inflammatory cytokines
Thirty ml of human peripheral blood added with heparin was placed on Ficol-Paque (15 ml), and centrifuged at 400 G for 40 minutes at room temperature. The obtained monocyte fraction layers were collected and washed three times with E-MEM medium. The cells were adjusted to a final concentration of 0.5×10^5 cells/800 μl with RPMI-1640 medium containing 5% bovine fetal serum (2-mercaptoethanol), and seeded in a 24 well plant by 800 μl. A test sample (100 μl) was added and 100 μl of lipopolysarcharide (LPS, 100 μg/ml) was added one hour later. The supernatant was taken at 20 hours after stimulation with LPS, and amounts of various cytokines were determined using an ELISA kit.

[2] = system: ALT in blood; test: Suppression of LPS/D-galactosamine-induced hepatitis; type: in vivo; conditions: Mus musculus, iv; dose 10 mg/kg, tail vein, 10 minutes before LPS/D-galactosamine; ALT in blood at 6 hours, male C57BL/6 mice
Procedure: Suppression of LPS/D-galactosamine-induced hepatitis
LPS (5 μg/kg)D-galactosamine (500 mg/kg) in physiological saline was intraperitoneally injected to male C57BL/6 mice to induce hepatitis. Six hours after the injection of LPS/D-galactosamine in physiological saline, blood was taken from the mice orbital venosus plexus. Plasma was separated from the blood, and ALT in blood was determined by a biochemical analyzer. The test sample was administered from the tail vein at 10 minutes before the injection of LPS/D-galactosamine in physiological saline, and the degree of suppression was investigated. The suppression by the test sample is shown in the ratio relative to the suppression in the control group.
Suppression (%)=100-(ALT amount of group treated with test sample/ALT amount of control group)×100

IC50 ([1]; Homo sapiens, Monocyte, 20 h) | Structure (SMILES) | also measured
8 µM | CNCCCCOc1ccc(C(=O)N[C@@H](Cc2ccccc2)C(=O)OC)c(O)c1Cl [Example 7] | 
0.4 µM | CNCCOc1c(Cl)cc(C(=O)N[C@@H](Cc2ccccc2)C(=O)OC)c(O)c1Cl [Example 11] | 
0.03 µM | CCNCCCCOc1c(Cl)cc(C(=O)N[C@@H](Cc2ccccc2)C(=O)OC)c(O)c1Cl [Example 16] | 
29 µM | CCOC(=O)C(Cc1ccccc1)N(C)C(=O)c1cc(Cl)c(OCCCCN)c(Cl)c1O (stereo not shown) [Example 20] | 
< 0.01 µM | CCOC(=O)C(Cc1ccccc1)NC(=O)c1cc(Cl)c(OCCCCNC)c(Cl)c1O (stereo not shown) [Example 21] | 
0.009 µM | CCOC(=O)C(Cc1ccccc1)NC(=O)c1cc(Cl)c(OCCCCCCCN)c(Cl)c1O (stereo not shown) [Example 26] | 
< 0.01 µM | CC(C)COC(=O)[C@H](Cc1ccccc1)NC(=O)c1cc(Cl)c(OCCCCN)c(Cl)c1O [Example 28] | 
< 0.01 µM | CNCCCCOc1c(Cl)cc(C(=O)N[C@@H](Cc2ccccc2)C(=O)OCC(C)C)c(O)c1Cl [Example 29] | 
0.6 µM | CC(C)(C)OC(=O)[C@H](Cc1ccccc1)NC(=O)c1cc(Cl)c(OCCCCN)c(Cl)c1O [Example 30] | 
2 µM | CNCCCCOc1c(Cl)cc(C(=O)N[C@@H](CC2CCCCC2)C(=O)OC)c(O)c1Cl [Example 34] | 
0.03 µM | CCOC(=O)COC(=O)[C@H](Cc1ccccc1)NC(=O)c1cc(Cl)c(OCCCCN)c(Cl)c1O [Example 43] | 
3 µM | CC1CCCC(C)C1OC(=O)[C@H](Cc1ccccc1)NC(=O)c1cc(Cl)c(OCCCCN)c(Cl)c1O (stereo partly shown) [Example 47] | 
0.2 µM | CN1CCC(OC(=O)[C@H](Cc2ccccc2)NC(=O)c2cc(Cl)c(OCCCCN)c(Cl)c2O)CC1 [Example 48] | 
0.02 µM | NCCCCOc1c(Cl)cc(C(=O)N[C@@H](Cc2ccccc2)C(=O)OC2C3CC4CC(C3)CC2C4)c(O)c1Cl (stereo partly shown) [Example 49] | 
< 0.01 µM | CN(C)CCCCOc1c(Cl)cc(C(=O)N[C@@H](Cc2ccccc2)C(=O)OCc2ccccc2)c(O)c1Cl [Example 55] | 
4 µM | CC(OC(=O)[C@H](Cc1ccccc1)NC(=O)c1cc(Cl)c(OCCCCN)c(Cl)c1O)N1CCNCC1 (stereo partly shown) [Example 56] | 
0.05 µM | NCCCCOc1c(Cl)cc(C(=O)N[C@@H](Cc2ccccc2)C(=O)ON=C2CCCCC2)c(O)c1Cl [Example 57] | 
0.02 µM | COC(=O)[C@H](Cc1ccccc1)NC(=O)c1cc(Cl)c(OCCN2CCN(C)CC2)c(Cl)c1O [Example 58] | 
 | COC(=O)[C@H](Cc1ccccc1)NC(=O)c1cc(Cl)c(OCCN2CCN[C@@H](C)C2)c(Cl)c1O [Example 61] | inhibition in vivo at 10 mg/kg [2]: 6%
0.1 µM | COC(=O)[C@H](Cc1ccccc1)NC(=O)c1cc(Cl)c(OCCN2CCN(C)C(C)C2)c(Cl)c1O (stereo partly shown) [Example 63] | 
0.05 µM | CCOC(=O)C(Cc1ccccc1)NC(=O)c1cc(Cl)c(OCCN2CCNCC2)c(Cl)c1O (stereo not shown) [Example 64] | 
0.05 µM | CCOC(=O)C(Cc1ccccc1)NC(=O)c1cc(Cl)c(OCCCN2CCNCC2)c(Cl)c1O (stereo not shown) [Example 67] | 
0.001 µM | CCOC(=O)C(Cc1ccccc1)NC(=O)c1cc(Cl)c(OCCCN2CCN(C)CC2)c(Cl)c1O (stereo not shown) [Example 68] | 
< 0.001 µM | CCOC(=O)C(Cc1ccccc1)NC(=O)c1cc(Cl)c(OCCC2CCNCC2)c(Cl)c1O (stereo not shown) [Example 69] | 
0.006 µM | CCOC(=O)C(Cc1ccccc1)NC(=O)c1cc(Cl)c(OCCC2CCN(C)CC2)c(Cl)c1O (stereo not shown) [Example 70] | 
0.04 µM | CCOC(=O)C(Cc1ccccc1)NC(=O)c1cc(Cl)c(OCCCCNC)cc1O (stereo not shown) [Example 71] | 
0.1 µM | CCOC(=O)C(Cc1ccccc1)NC(=O)c1cc(Cl)c(OCCCCN(C)C)cc1O (stereo not shown) [Example 72] | 
0.07 µM | CCOC(=O)C(Cc1ccccc1)NC(=O)c1cc(Br)c(OCCCCN)cc1O (stereo not shown) [Example 74] | 

IC50 ([1]; Homo sapiens, Monocyte, 20 h) | Structure (SMILES) | also measured
0.3 µM | CNCCCCOc1cc(O)c(C(=O)N[C@@H](Cc2ccccc2)C(=O)OC)cc1C [Example 76] | 
3 µM | CCOC(=O)C(Cc1ccccc1)NC(=O)c1cc(C)c(OCCCCNC)c(C)c1O (stereo not shown) [Example 77] | 
0.07 µM | CNCCCCOc1c(Cl)cc(C(=O)N[C@@H](Cc2ccccc2)C(=O)OCCN(C(C)C)C(C)C)c(O)c1Cl [Example 85] | 
0.2 µM | COC(=O)[C@H](Cc1ccccc1)NC(=O)c1cc(Cl)c(OCCCCO)c(Cl)c1O [Example 87] | 
 | CNCCCCc1ccc(C(=O)N[C@@H](Cc2ccccc2)C(=O)OC)c(O)c1 [Example 88, N-[2-Hydroxy-4-(4-methylaminobutyl)benzoyl]-L-phenylalanine methyl ester hydrochloride] | IC50 ([1]; listed as Example No. 88, hydrochloride): 3 µM
0.6 µM | CNCCCCCc1ccc(C(=O)N[C@@H](Cc2ccccc2)C(=O)OC)c(O)c1 [Example 89] | 
 | CNCCCCc1ccc(C(=O)N[C@@H](Cc2ccccc2)C(=O)OC)c(O)c1 [Example 90] | IC50 ([1]; listed as Example No. 90): 0.6 µM
0.001 µM | CNCCCCCc1c(Cl)cc(C(=O)N[C@@H](Cc2ccccc2)C(=O)OC)c(O)c1Cl [Example 91, N-[3,5-Dichloro-2-hydroxy-4-(5-methylaminopentyl)benzoyl]-L-phenylalanine methyl ester hydrochloride] | 
1 µM | CCOC(=O)C(Cc1ccccc1)NC(=O)c1cc(Cl)c(CCCCCN(C)C)cc1O (stereo not shown) [Example 94] | 
0.001 µM | CCOC(=O)C(Cc1ccccc1)NC(=O)c1cc(Cl)c(CCCC2CCN(C)CC2)c(Cl)c1O (stereo not shown) [Example 100] | 
0.003 µM | CCOC(=O)C(Cc1ccccc1)NC(=O)c1cc(Cl)c(CCCC2CCNCC2)c(Cl)c1O (stereo not shown) [Example 101] | 
0.002 µM | CCOC(=O)C(Cc1ccccc1)NC(=O)c1cc(Cl)c(CCCN2CCNCC2)c(Cl)c1O (stereo not shown) [Example 102] | 
0.7 µM | CCOC(=O)C(Cc1ccccc1)NC(=O)c1cc(Cl)c(CCCN2CCC(N)CC2)c(Cl)c1O (stereo not shown) [Example 103] | 
< 0.01 µM | CNCCCCOc1c(Cl)cc(C(=O)N[C@@H](Cc2ccccc2)C(=O)OC)c(OC(=O)COC(C)=O)c1Cl [Example 110] | 
< 0.01 µM | COC(=O)[C@H](Cc1ccccc1)NC(=O)c1cc(Cl)c(OCCN2CCNC(C)C2)c(Cl)c1OC(C)=O (stereo partly shown) [Example 122] | 
 | COC(=O)[C@H](Cc1ccccc1)NC(=O)c1cc(Cl)c(OCCN2CCN[C@@H](C)C2)c(Cl)c1OC(=O)c1ccccc1 [Example 123] | inhibition in vivo at 10 mg/kg [2]: 41%
0.01 µM | CCOC(=O)C(Cc1ccccc1)NC(=O)c1cc(Cl)c(OCCN2CCN(C)CC2)c(Cl)c1OC(C)=O (stereo not shown) [Example 125] | 
2 µM | CC1CN(CCOc2c(Cl)cc(C(=O)N[C@@H](Cc3ccccc3)C(=O)O)c(O)c2Cl)CCN1 (stereo partly shown) [Example 129] | 
0.2 µM | CN(C)CCCCCc1c(Cl)cc(C(=O)N[C@@H](Cc2ccccc2)C(=O)O)c(O)c1Cl [Example 133] | 
 | CN1CCN(CCOc2c(Cl)cc(C(=O)N[C@@H](Cc3ccccc3)C(=O)O)c(O)c2Cl)CC1 [Example 134] | IC50 ([1]; Monocyte): 0.2 µM
0.2 µM | CNCCCCNc1c(Cl)cc(C(=O)N[C@@H](Cc2ccccc2)C(=O)OC)c(O)c1Cl [Example 136, N-[3,5-Dichloro-2-hydroxy-4-(4-methylaminobutylamino)benzoyl]-L-phenylalanine methyl ester dihydrochloride] | 
4 µM | NCCCCOc1c(Cl)cc(C(=O)N[C@@H](Cc2ccccc2)C(N)=O)c(O)c1Cl [Example 139] | 
3 µM | NCCCCOc1c(Cl)cc(C(=O)N[C@@H](Cc2ccccc2)C(=O)Nc2ccc(F)cc2)c(O)c1Cl [Example 141] | 
0.4 µM | NCCCCOc1c(Cl)cc(C(=O)N[C@@H](Cc2ccccc2)C(=O)Nc2ccccn2)c(O)c1Cl [Example 142] | 
 | CNCCCCOc1c(Cl)cc(C(=O)N[C@@H](Cc2ccccc2)C(=O)NO)c(O)c1Cl [Example 143, N-[3,5-Dichloro-2-hydroxy-4-(4-methylaminobutoxy)benzoyl]-L-phenylalanylhydroxyamide] | IC50 [1]: 3 µM
7 µM | CCOC(=O)[C@H](Cc1ccccc1)NC(=O)c1ccc2oc(SCCCNC)nc2c1 [Example 152, (2S)-2-[2-(3-Methylaminopropylsulfanyl)benzoxazole-5-carbonyl-amino]-3-phenylpropionic acid ethyl ester hydrochloride] | 
2 µM | CCOC(=O)C(Cc1ccccc1)NC(=O)c1cc(Cl)c(OC(=O)C2(CC)CCNCC2)cc1O (stereo not shown) [Example 156] | 

Structure (SMILES) | IC50 ([1]; Homo sapiens, Monocyte, 20 h) | also measured
Cc1noc([C@H](Cc2ccccc2)NC(=O)c2cc(Cl)c(OCCCCN)c(Cl)c2O)n1 [Example 144, N-[4-(4-Aminobutoxy)-3,5-dichloro-2-hydroxybenzoyl]-1-(3-methyl-1,2,4-oxadizaol-5-yl)-2-phenylethylamine hydrochloride] | 29 µM | 
COC(=O)[C@H](Cc1ccccc1)NC(=O)c1cc2cccc(OCCCCN)c2cc1O [Example 146, (2S)-3-Phenyl-2-[5-(4-aminobutoxy)-3-hydroxy-2-naphthoylamino]-propionic acid methyl ester hydrochloride] | 5 µM | 
CCOC(=O)[C@H](Cc1ccccc1)NC(=O)c1ccc(-c2ccc(OCCCCNC)cc2)cc1 [Example 147, N-[4-[4-(4-Methylaminobutoxy)phenyl]benzoyl]-L-phenylalanine ethyl ester hydrochloride] | 2 µM | 
